Experiment [1] relates to Fe^2+-induced lipid peroxidation in rat brain homogenate. Description: Effect on the Fe^2+-induced (non-enzymatically induced) lipid peroxidation in brain homogenate. It is filed as biochemical, rat (Hannover-Wistar). Conditions: for IC50: rat brain homogenate, 20 min, 37° C., pH 7.4, 8 mM ferrous diammonium disulfate solution (5 μl), malondialdehyde at 535 nm, read-out: Inhibition of the Fe^2+-induced lipid peroxidation IC50; for antioxidant activity compared with tirilazad mesylate / inhibition of the Fe^2+-induced lipid peroxidation compared with silymarin or ellagic acid / inhibitory effect on the Fe^2+-induced lipid peroxidation compared with DL-α-tocopherol: in words, from Table I.
Experimental: Effect on the Fe^2 +-induced lipid peroxidation in brain homogenate
After decapitating Hannover-Wistar rats weighing 150-220 g each, the whole brain was homogenized in 9 volumes of icecold Krebs-Ringer's buffer containing 15 mM 4-(2-hydroxyethyl)-1-(piperazinylethanesulfonic acid (abbreviated: HEPES, pH 7.4), 140 mM sodium chloride, 3.6 mM potassium chloride, 1.5 mM calcium chloride, 0.7 mM magnesium chloride, 1.4 mM potassium dihydrogen phosphate and 10 mM glucose!. Then, the protein content of the solution was determined and adjusted to 10 mg/ml concentration.
After adding the inhibitory agent to be tested in a volume of 5 ml to 200 μl of the homogenate, the incubation mixture was incubated at 37° C. for 20 minutes. The Fe^2+ -induced lipid peroxidation was accomplished by adding 5 μl of 8 mM ferrous diammonium disulfate Fe(NH4)2 (SO4)2 ! solution. After passing of the incubation time, the reaction was stopped by adding 1 ml of a stopping solution containing 0.8M hydrogen chloride in trichloroacetic acid solution of 12.5%; then the samples were centrifuged at 2000×g in a Janetzki apparatus at 4° C. for 10 minutes.
To 0.5 ml portion of the supernatant, 1 ml of 1% thiobarbituric acid solution was added, then the samples were placed in a water bath of 100° C. for 20 minutes. The color intensity developed was determined at 535 nm with the aid of a Hitachi 150-20 spectrophotometer by using malondialdehyde bis(diethylacetal) as reference compound.

Experiment [2] relates to NADPH-induced lipid peroxidation in rat brain microsomes. Briefly: Inhibition of the NADPH-induced (enzymatically induced) lipid peroxidation in brain microsomes. It is filed as biochemical, rat (male Hannover-Wistar). Conditions: 20 min, 37° C., pH 6.8, 0.4 mM NADPH, malondialdehyde at 535 nm, N.I.: no inhibition. The source says: The pharmacological effect of the eburnamenine derivatives of the formula (I) was studied as described hereinafter. […] The antioxidative effect was investigated on microsomes prepared from rat brain J. Neurochem. 37, pages 422-426 (1981)! and on rat brain homogenate J. Biol Chem. 262, pages 10438-10440 (1987)!. Inhibition of the NADPH-induced lipid peroxidation in brain microsomes Male Hannover-Wistar rats with a body weight of 150-250 g were used for the preparation of microsomes. After decapitation, the whole brain of the rat was removed and homogenized in a 10-fold volume of ice-cold 0.25M saccharose solution. The homogenate was centrifuged in a Hitachi CR 26H equipment at 15000×g at 4° C. for 10 minutes, then the supernatant was collected and centrifuged in a Hitachi SC[…] equipment at 78000×g at 4° C. for 60 minutes. After suspending the precipitate in 0.15M potassium chloride solution, the protein content of the obtained solution was determined and then adjusted to 10 mg/ml concentration. The microsome thus obtained was frozen in a dry ice-acetone mixture and stored at -70° C. until use. The components of the incubation mixtures were: 50 mM tris(hydroxymethyl)aminomethane hydrochloride (pH 6.8), 0.2 mM ferric chloride, 1 mM potassium dihydrogen phosphate, 0.5 mM adenosine-5'-diphosphate, 0.2 mg of microsomes as well as the compound to be tested. The incubation was carried out with a final volume of 1 ml and an incubation time of 20 minutes at a temperature of 37° C. The lipid peroxidation was induced by adding 0.4 mM NADPH ([…], reduced form). […] The formation of malondialdehyde was determined by using thiobarbituric acid. After stopping the reaction, 1 ml of 1% thiobarbituric acid solution each was added to the samples, which were then 10 placed in a water bath of about 100° C. for 10 minutes. Subsequently, the samples were centrifuged at 2000×g in a Janetzki K70 apparatus at 4° C. for 10 minutes. The absorbance value of the colored supernatant was measured at 535 nm in a Hitachi 150-20 spectrophotometer. Malondialdehyde bis(diethylacetal) was used as reference compound. The IC50 values of the compounds were determined on the basis of the concentration/effect correlations thereof and are indicated in Table I.

Where a name gives a salt, the structure may show the parent alone.

What is called IC50 is the midpoint of a concentration-inhibition curve.

For the compound `Cc1c(C)c2c(c(C)c1O)CCC(C)(CCCC(C)CCCC(C)CCCC(C)C)O2` (racemic) [DL-α-Tocopherol, reference compound], the IC50 in experiment [1] came out at 10.5 µM. Besides, the “Inhibition of the NADPH-induced lipid peroxidation IC50” value in experiment [2] is “N.I”.

`CC[C@@]12C=C(C(=O)N3CCN(c4cc(N5CCCC5)nc(N5CCCC5)n4)CC3)n3c4c(c5ccccc53)CCN(CCC1)[C@H]42` [Compound 1, 1-(3α,16α)-eburnamenine-14-carbonyl!-4-2,6-bis(pyrrolidino)-4-pyrimidinyl!piperazine]: the “antioxidant activity compared with tirilazad mesylate” value in experiment [1] is “reaches and even exceeds to some extent the lipid peroxidation-inhibiting effect of tirilazad mesylate”. Moreover, the IC50 was 124 µM in experiment [1] and 24.2 µM in experiment [2].

As to `CC[C@@]12C=C(CN3CCN(c4cc(N5CCCC5)nc(N5CCCC5)n4)CC3)n3c4c(c5ccccc53)CCN(CCC1)[C@H]42` [Compound 2, 1-{ (3α,16α)-eburnamenine-14-yl!methyl}-4-2,6-bis(pyrrolidino)-4-pyrimidinyl!piperazine trihydrobromide], in experiment [1], the “antioxidant activity compared with tirilazad mesylate” value is “reaches and even exceeds to some extent the lipid peroxidation-inhibiting effect of tirilazad mesylate”; the IC50 is 112 µM. In experiment [2], this compound registered an IC50 of 6.2 µM.

Consider `CCC12C=C(C(=O)N3CCN(c4cc(N5CCCC5)nc(N5CCCC5)n4)CC3)n3c4c(c5ccccc53)CCN(CCC1)C42` (stereo not drawn) [Compound 3, 1-(16α)-eburnamenine-14-carbonyl!-4-2,6-bis(pyrrolidino)-4-pyrimidinyl!piperazine], for which, in experiment [1], the “inhibition of the Fe^2+-induced lipid peroxidation compared with silymarin or ellagic acid” value is “more effectively than the hepatoprotective silymarin or the anticancerogenic ellagic acid”, the “inhibitory effect on the Fe^2+-induced lipid peroxidation compared with DL-α-tocopherol” value is “reaches the antioxidant activity of the therapeutically used DL-α-tocopherol” and the IC50 was found to be 11.4 µM. Moreover, the IC50 in experiment [2] stood at 2.4 µM.

As to `CCC12C=C(C(=O)N3CCN(c4cc(N5CCCC5)nc(N5CCCC5)n4)CC3)n3c4c(c5ccccc53)CCN(CCC1)C42` (stereo not drawn) [Compound 4, 1-(3α)-eburnamenine-14-carbonyl!-4-2,6-bis(pyrrolidino)-4-pyrimidinyl!piperazine], in experiment [1], the “inhibition of the Fe^2+-induced lipid peroxidation compared with silymarin or ellagic acid” value is listed as “more effectively than the hepatoprotective silymarin or the anticancerogenic ellagic acid”, the “inhibitory effect on the Fe^2+-induced lipid peroxidation compared with DL-α-tocopherol” value was “reaches the antioxidant activity of the therapeutically used DL-α-tocopherol” and the IC50 amounted to 10.3 µM. In experiment [2], this compound had an IC50 of 3.1 µM.

As to `O=c1oc2c(O)c(O)cc3c(=O)oc4c(O)c(O)cc1c4c23` [Ellagic acid, 4,4',5,5',6,6'-hexahydrodiphenic acid 2,6':2',6-dilactone, reference compound], the IC50 amounted to 51 µM in experiment [1] and 47.2 µM in experiment [2].

With `C[C@@H]1C[C@H]2[C@@H]3CCC4=CC(=O)C=C[C@]4(C)C3=CC[C@]2(C)[C@H]1C(=O)CN1CCN(c2cc(N3CCCC3)nc(N3CCCC3)n2)CC1` [Tirilazad mesylate, 16α-methyl-21-{4-2,4-bis(pyrrolidino)6-pyrimidinyl!-1-piperazinyl}-pregna-1,4,9(11)-trien-3,20-dione methanesulfonate, reference compound], the IC50 was 135 µM in experiment [1] and 121 µM in experiment [2].

The values are drawn from patent US5510345A, “Biologically active eburnamenine derivatives, pharmaceutical compositions containing them and process for preparing same” (Richter Gedeon Vegyeszeti Gyar Rt., priority 1992, dated 1996).
